{"source": "ChEMBL document CHEMBL5380773", "about": "“Novel Feleucin-K3-Derived Peptides Modified with Sulfono-γ-AA Building Blocks Targeting Pseudomonas aeruginosa and Methicillin-Resistant Staphylococcus aureus Infections” (J Med Chem, 2023)", "key": {"Pseudomonas aeruginosa [1]": {"system": "Pseudomonas aeruginosa", "experiment": "Antibiofilm activity against Pseudomonas aeruginosa ATCC 27853 assessed as reduction in biofilm thickness at 2 times MBIC90 incubated for 24 hrs by confocal laser scanning microscopy analysis", "format": "functional"}, "Staphylococcus aureus [2]": {"system": "Staphylococcus aureus", "experiment": "(§1) Antimicrobial activity against methicillin resistant Staphylococcus aureus ATCC 33591 infected in BALB/c mouse assessed as reduction in tissue damage at 0.25 to 1 mg/kg infected with bacteria for 2 hrs prior to compound addition on 1, 24 and 48 hrs and measured after 72 hrs by H and E staining based assay", "format": "functional, organism-based", "conditions": "dose 0.25-1 mg/kg"}, "Pseudomonas aeruginosa [3]": {"system": "Pseudomonas aeruginosa", "experiment": "Antimicrobial activity against Pseudomonas aeruginosa ATCC 27853 incubated for 18 hrs by microdilution method", "format": "functional"}, "Staphylococcus aureus [4]": {"system": "Staphylococcus aureus", "experiment": "Antimicrobial activity against methicillin resistant Staphylococcus aureus ATCC 33591 infected in skin wound mouse model assessed as reduction in skin wound bacterial load at 0.25 to 4 mg/kg measured on day 3 and 7 […]", "format": "functional, organism-based", "conditions": "dose 0.25-4 mg/kg, time 3-7 day"}, "Pseudomonas aeruginosa [5]": {"system": "Pseudomonas aeruginosa", "experiment": "Antimicrobial activity against Pseudomonas aeruginosa ATCC 27853 infected in C57BL/6J mouse assessed as reduction in TNF-alpha at 2.5 mg/kg, ip measured after 72 hrs […]", "format": "functional, organism-based"}, "Cell membrane [6]": {"system": "Cell membrane", "experiment": "Induction of membrane disruption in Pseudomonas aeruginosa ATCC 27853 assessed as membrane collapse at high concentration incubated for 24 hrs by SEM analysis", "format": "subcellular"}, "Pseudomonas aeruginosa [7]": {"system": "Pseudomonas aeruginosa", "experiment": "Antibiofilm activity against Pseudomonas aeruginosa ATCC 27853 assessed as reduction in biofilm thickness at 1 times MBIC90 incubated for 24 hrs by confocal laser scanning microscopy analysis (reference value: 90 micrometer)", "format": "functional"}, "Cell membrane [8]": {"system": "Cell membrane", "experiment": "Induction of membrane disruption in methicillin resistant Staphylococcus aureus ATCC 33591 assessed as cell lysis at high concentration incubated for 24 hrs by SEM analysis", "format": "subcellular"}, "Staphylococcus aureus [9]": {"system": "Staphylococcus aureus", "experiment": "Antimicrobial activity against methicillin resistant Staphylococcus aureus ATCC 33591 infected in skin wound mouse model assessed as reduction in ulcer at 1 to 4 mg/kg measured on day 3 and 7 by H and E staining based assay", "format": "functional, organism-based", "conditions": "dose 1-4 mg/kg, time 3-7 day"}, "Staphylococcus aureus [10]": {"system": "Staphylococcus aureus", "experiment": "Bactericidal activity against methicillin resistant Staphylococcus aureus ATCC 33591 at 4 times MIC after 2 to 4 hrs", "format": "functional, organism-based", "conditions": "time 2-4 hrs"}, "Pseudomonas aeruginosa [11]": {"system": "Pseudomonas aeruginosa", "experiment": "Antimicrobial activity against Pseudomonas aeruginosa ATCC 27853 infected in C57BL/6J mouse assessed as reduction in lung bacterial load at 2.5 mg/kg, ip measured after 72 hrs […] (reference value: 6.4 10^3CFU/mg)", "format": "functional"}, "Cell membrane [12]": {"system": "Cell membrane", "experiment": "Induction of membrane disruption in methicillin resistant Staphylococcus aureus ATCC 33591 assessed as membrane blebbing at low concentration incubated for 24 hrs by SEM analysis", "format": "subcellular"}, "Staphylococcus aureus [13]": {"system": "Staphylococcus aureus", "experiment": "Antimicrobial activity against methicillin resistant Staphylococcus aureus ATCC 33591 infected in skin wound mouse model assessed as reduction in skin damage at 0.25 mg/kg measured upto 10 days by H and E staining based assay", "format": "functional, organism-based", "conditions": "time <= 10.0 day"}, "Pseudomonas aeruginosa [14]": {"system": "Pseudomonas aeruginosa", "experiment": "Antibiofilm activity against Pseudomonas aeruginosa ATCC 27853 at MBIC50", "format": "functional, organism-based"}, "Staphylococcus aureus [15]": {"system": "Staphylococcus aureus", "experiment": "Induction of resistant development in Staphylococcus aureus ATCC 25923 assessed as fold increase by serial passage assay", "format": "functional"}, "Cell membrane [16]": {"system": "Cell membrane", "experiment": "Induction of membrane disruption in Pseudomonas aeruginosa ATCC 27853 assessed as membrane collapse at 2 to 4 times MIC incubated for 24 hrs by TEM analysis", "format": "subcellular"}, "Pseudomonas aeruginosa [17]": {"system": "Pseudomonas aeruginosa", "experiment": "Induction of DNA leakage in Pseudomonas aeruginosa ATCC 27853 after 1 to 6 hrs", "format": "functional, organism-based", "conditions": "time 1-6 hrs"}, "Pseudomonas aeruginosa [18]": {"system": "Pseudomonas aeruginosa", "experiment": "Antibiofilm activity against Pseudomonas aeruginosa ATCC 27853 at 4 to 8 ug/ml incubated for 24 hrs by crystal violet staining based microplate reader analysis", "format": "functional, organism-based", "conditions": "dose 4-8 µg/ml"}, "Staphylococcus aureus [19]": {"system": "Staphylococcus aureus", "experiment": "Bactericidal activity against methicillin resistant Staphylococcus aureus ATCC 33591 at 4 times MIC after 1 to 2.5 hrs by time kill assay", "format": "functional, organism-based", "conditions": "time 1-2.5 hrs"}, "Pseudomonas aeruginosa [20]": {"system": "Pseudomonas aeruginosa", "experiment": "Bactericidal activity against Pseudomonas aeruginosa ATCC 27853 at 4 times MIC after 2 to 6 hrs by time kill assay", "format": "functional, organism-based", "conditions": "time 2-6 hrs"}, "Pseudomonas aeruginosa [21]": {"system": "Pseudomonas aeruginosa", "experiment": "Induction of DNA leakage in Pseudomonas aeruginosa ATCC 27853", "format": "functional, organism-based", "conditions": "TDE = time-dependent effect"}, "DNA": {"system": "DNA", "experiment": "Binding affinity to Staphylococcus aureus DNA at 8 times MIC incubated for 30 mins", "format": "nucleic-acid assay"}, "Staphylococcus aureus [22]": {"system": "Staphylococcus aureus", "experiment": "Antimicrobial activity against methicillin resistant Staphylococcus aureus ATCC 33591 infected in skin wound mouse model assessed as reduction in edema at 1 to 4 mg/kg measured on day 3 and 7 by H and E staining based assay", "format": "functional, organism-based", "conditions": "dose 1-4 mg/kg, time 3-7 day"}, "Pseudomonas aeruginosa [23]": {"system": "Pseudomonas aeruginosa", "experiment": "Antibiofilm activity against Pseudomonas aeruginosa ATCC 27853 assessed as reduction in biofilm thickness at 1 times MBIC50 incubated for 24 hrs by confocal laser scanning microscopy analysis (reference value: 90 micrometer)", "format": "functional"}, "Staphylococcus aureus [24]": {"system": "Staphylococcus aureus", "experiment": "Bactericidal activity against Staphylococcus aureus ATCC 25923 at 4 times MIC after 1 hr by time kill assay", "format": "functional, organism-based"}, "Staphylococcus aureus [25]": {"system": "Staphylococcus aureus", "experiment": "Antimicrobial activity against methicillin resistant Staphylococcus aureus ATCC 33591 infected in skin wound mouse model assessed as reduction in inflammatory infiltration at […] by H and E staining based assay", "format": "functional, organism-based", "conditions": "dose lower 10.0 mg/kg"}, "Staphylococcus aureus [26]": {"system": "Staphylococcus aureus", "experiment": "Antimicrobial activity against Staphylococcus aureus in presence of LPS/LTA", "format": "functional"}, "Staphylococcus aureus [27]": {"system": "Staphylococcus aureus", "experiment": "Antimicrobial activity against methicillin resistant Staphylococcus aureus ATCC 33591 infected in skin wound mouse model assessed as wound healing at 0.25 mg/kg measured upto 10 days by H and E staining based assay", "format": "functional, organism-based", "conditions": "time <= 10.0 day"}, "Cell membrane [28]": {"system": "Cell membrane", "experiment": "Induction of membrane disruption in Pseudomonas aeruginosa ATCC 27853 assessed as membrane shrinkage at low concentration incubated for 24 hrs by SEM analysis", "format": "subcellular"}, "Cell membrane [29]": {"system": "Cell membrane", "experiment": "Induction of membrane disruption in Pseudomonas aeruginosa ATCC 27853 assessed as separation of outer membrane at 2 to 4 times MIC incubated for 24 hrs by TEM analysis", "format": "subcellular"}, "[30]": {"system": "Staphylococcus epidermidis", "experiment": "Antibiofilm activity against Staphylococcus epidermidis ATCC 12228 assessed as reduction in biofilm thickness", "format": "functional, organism-based"}, "Cell membrane [31]": {"system": "Cell membrane", "experiment": "Induction of membrane disruption in methicillin resistant Staphylococcus aureus ATCC 33591 assessed as membrane collapse at high concentration incubated for 24 hrs by SEM analysis", "format": "subcellular"}, "Pseudomonas aeruginosa [32]": {"system": "Pseudomonas aeruginosa", "experiment": "Induction of resistant development in Pseudomonas aeruginosa ATCC 27853 at sub-MIC after 20 days", "format": "functional, organism-based", "conditions": "time 20.0 day"}, "Cell membrane [33]": {"system": "Cell membrane", "experiment": "Induction of outer membrane disruption in Pseudomonas aeruginosa in presence of FeCl3 by NPN uptake assay", "format": "subcellular"}, "Staphylococcus aureus [34]": {"system": "Staphylococcus aureus", "experiment": "as §1, with “inflammatory cell infiltration” for “tissue damage”", "format": "functional, organism-based", "conditions": "dose 0.25-1 mg/kg"}, "Cell membrane [35]": {"system": "Cell membrane", "experiment": "Induction of membrane disruption in methicillin resistant Staphylococcus aureus ATCC 33591 assessed as cytoplasmic leakage at 2 to 4 times MIC incubated for 2 to 4 hrs by TEM analysis", "format": "subcellular", "conditions": "time 2-4 hrs"}, "Pseudomonas aeruginosa [36]": {"system": "Pseudomonas aeruginosa", "experiment": "Bactericidal activity against Pseudomonas aeruginosa ATCC 27853 at 4 times MIC after 1 hr", "format": "functional, organism-based"}, "[37]": {"system": "Staphylococcus epidermidis", "experiment": "Antibiofilm activity against Staphylococcus epidermidis ATCC 12228 at 2 to 4 ug/ml incubated for 24 hrs by crystal violet staining based microplate reader analysis", "format": "functional", "conditions": "dose 2-4 µg/ml, at 2 to 4 µg/mL"}}, "note": "The source made the active and inactive calls. No cut-off for these calls is given here. Numbered stars: 1 amine (or outer) side, 2 acyl side, 3 side chain; on linkers, the order of the positions; unused ones are H or OH. Square brackets hold non-standard residues; d marks the D form. Peptide text beside a SMILES is read from it. * marks the point of attachment. X2 = CC(C)C[C@H](N)CN(CC(=O)[*:2])[*:1]; X1 = O=S(=O)(c1ccc(I)cc1)*"}
{"molecule": "CC(C)C[C@H](N)CN(CC(=O)N[C@@H](CCCCN)C(=O)N[C@@H](CC(C)C)C(=O)N[C@@H](CC(C)C)C(=O)N[C@@H](CCCCN)C(=O)N[C@@H](CCCCN)C(=O)N[C@@H](CC(C)C)C(=O)N[C@@H](CC(C)C)C(N)=O)S(=O)(=O)c1ccc(I)cc1", "note": "(X1-[X2]KLLKKLL-NH2)", "values": [{"measurement": "Activity", "setting": "Pseudomonas aeruginosa [1]", "result": 60, "unit": "um"}, {"measurement": "Activity", "setting": "Staphylococcus aureus [2]", "result": "Active"}, {"measurement": "MIC", "setting": "Pseudomonas aeruginosa [3]", "result": 3, "unit": "µg/mL"}, {"measurement": "Activity", "setting": "Staphylococcus aureus [4]", "result": "Active"}, {"measurement": "Activity", "setting": "Pseudomonas aeruginosa [5]", "result": "Active"}, {"measurement": "Activity", "setting": "Cell membrane [6]", "result": "Active"}, {"measurement": "Activity", "setting": "Pseudomonas aeruginosa [7]", "result": 20, "unit": "um"}, {"measurement": "Activity", "setting": "Cell membrane [8]", "result": "Active"}, {"measurement": "Activity", "setting": "Staphylococcus aureus [9]", "result": "Active"}, {"measurement": "Activity", "setting": "Staphylococcus aureus [10]", "result": "Active"}, {"measurement": "Activity", "setting": "Pseudomonas aeruginosa [11]", "result": "3 10^3CFU/mg"}, {"measurement": "Activity", "setting": "Cell membrane [12]", "result": "Active"}, {"measurement": "Activity", "setting": "Staphylococcus aureus [13]", "result": "Active"}, {"measurement": "Activity", "setting": "Pseudomonas aeruginosa [14]", "result": "Active"}, {"measurement": "fold change (FC)", "setting": "Staphylococcus aureus [15]", "result": 2}, {"measurement": "Activity", "setting": "Cell membrane [16]", "result": "Active"}, {"measurement": "Activity", "setting": "Pseudomonas aeruginosa [17]", "result": "Dose-Dependent Effect"}, {"measurement": "Activity", "setting": "Pseudomonas aeruginosa [18]", "result": "Active"}, {"measurement": "Activity", "setting": "Staphylococcus aureus [19]", "result": "Active"}, {"measurement": "Activity", "setting": "Pseudomonas aeruginosa [20]", "result": "Active"}, {"measurement": "Activity", "setting": "Pseudomonas aeruginosa [21]", "result": "Tde"}, {"measurement": "Activity", "setting": "DNA", "result": "Active"}, {"measurement": "Activity", "setting": "Staphylococcus aureus [22]", "result": "Active"}, {"measurement": "Activity", "setting": "Pseudomonas aeruginosa [23]", "result": 40, "unit": "um"}, {"measurement": "Activity", "setting": "Staphylococcus aureus [24]", "result": "Active"}, {"measurement": "Activity", "setting": "Staphylococcus aureus [25]", "result": "Active"}, {"measurement": "MIC", "setting": "Staphylococcus aureus [26]", "result": "≥ 16", "unit": "µg/mL"}, {"measurement": "Activity", "setting": "Staphylococcus aureus [27]", "result": "Active"}, {"measurement": "Activity", "setting": "Cell membrane [28]", "result": "Active"}, {"measurement": "Activity", "setting": "Cell membrane [29]", "result": "Active"}, {"measurement": "Activity", "setting": "[30]", "result": "Active"}, {"measurement": "Activity", "setting": "Cell membrane [31]", "result": "Active"}, {"measurement": "Activity", "setting": "Pseudomonas aeruginosa [32]", "result": "Active"}, {"measurement": "Activity", "setting": "Cell membrane [33]", "result": "Active"}, {"measurement": "Activity", "setting": "Staphylococcus aureus [34]", "result": "Active"}, {"measurement": "Activity", "setting": "Cell membrane [35]", "result": "Active"}, {"measurement": "Activity", "setting": "Pseudomonas aeruginosa [36]", "result": "Active"}, {"measurement": "Activity", "setting": "[37]", "result": 50, "unit": "%"}]}
